Test results as given in paper PMC4052532, “Biodistribution and SPECT Imaging Study of ^99mTc Labeling NGR Peptide in Nude Mice Bearing Human HepG2 Hepatoma” (BioMed Research International, 2014).
Read-outs that look alike come from different tables or passages of the source. Where a SMILES comes first, the peptide text is derived from it. Bridges are numbered along the chain shown (N, C = ends).

What was measured:
[1] = In vitro stability in PBS (radio-TLC); type: physicochemical; settings: PBS pH 7.4, 37°C, 12 h incubation, percentage of parent tracer by radio-TLC
Procedure: (§1) The stability of ^99mTc-labeled NGR peptide in PBS and mouse serum at 37°C was studied at 1, 3, 6, and 12 h. Then the percentage of parent tracer was determined by radio-TLC (Table 1).

HepG2 cells = assay: Cell uptake study; type: cell-based, human; settings: 37°C, ~370 kBq/well, gamma counter, n = 3, mean ± SD
Procedure: HepG2 cells were seeded into 48-well plates at a density of 2 × 10^5 cells per well 24 h prior to the experiment. HepG2 cells were then incubated with ^99mTc-labeled NGR peptides (~370 kBq/well) at 37°C for 15, 30, 60, 120, and 240 min. After incubation, tumor cells were washed three times with ice cold PBS and harvested by trypsinization with 0.25% trypsin/0.02% EDTA (Hyclone, USA). Cell suspensions were collected and measured in a gamma counter (Zhida, Shannxi, China). Cell uptake data was presented as percentage of total input radioactivity added to the culture medium after decay correction. Experiments were performed twice with triplicate wells.

Biodistribution studies = type: in vivo; settings: female, BALB/c nude, mouse, total radioactivity; for tissue uptake at 1 h / tissue uptake at 4 h / tissue uptake at 8 h / tissue uptake at 12 h: n = 5, mean ± SD; for tissue uptake at 4 h: 4 h postinjection; for tissue uptake at 8 h: 8 h postinjection; for tissue uptake at 12 h: 12 h postinjection
Procedure: HepG2 cells were grown in high glucose DMEM culture medium. All cell lines were cultured in medium supplemented with 10% (v/v) fetal bovine serum (Gibco, USA), 1% mycillin, and 1% Glutamine (Beyotime, China) at 37°C in a humidified atmosphere with 5% CO2. Using female BALB/c nude mice (4–6 weeks of age), HepG2 tumor model was established by subcutaneous injection of 2 × 10^6 HepG2 tumor cells (0.1 mL) into the right upper flanks. When the tumor volume reached 0.8~1.0 cm in diameter (2-3 weeks after inoculation), the tumor-bearing mice were used for SPECT imaging and biodistribution studies. All animal studies were approved by Clinical Center at the FMMU.
Nude mice bearing human HepG2 hepatoma were randomly divided into 5 groups and injected with ~7.4 MBq of ^99mTc-NGR with or without excess unlabelled NGR peptide (20 mg/kg). After injection of the tracer, mice were sacrificed and dissected. The radioactivity in the HepG2 tumor, major organs, and muscle were collected and weighed wet with tubes (%ID/g). Mean uptake (%ID/g) for a group of animals was calculated with standard deviations. Values were expressed as mean ± SD (n = 5/group).

[2] = In vitro stability in mouse serum (radio-TLC); type: in vitro ADME; settings: 37°C, 12 h incubation, percentage of parent tracer by radio-TLC, read-out: ^99mTc-NGR peptide remained intact
Procedure: as §1

[3] = blood, iv, ~7.4 MBq i.v., read-out: Blood uptake
[4] = heart, iv, ~7.4 MBq i.v., read-out: Heart uptake
[5] = intestine, iv, ~7.4 MBq i.v., read-out: Intestine uptake
[6] = iv, HepG2 tumor, ~7.4 MBq i.v., read-out: Tumor uptake
[7] = kidney, iv, ~7.4 MBq i.v., read-out: Kidney uptake
[8] = liver, iv, ~7.4 MBq i.v., read-out: Liver uptake
[9] = lung, iv, ~7.4 MBq i.v., read-out: Lung uptake
[10] = muscle, iv, ~7.4 MBq i.v., read-out: Muscle uptake
[11] = spleen, iv, ~7.4 MBq i.v., read-out: Spleen uptake
[12] = stomach, iv, ~7.4 MBq i.v., read-out: Stomach uptake

N=C(N)NCCC[C@@H]1NC(=O)CNC(=O)[C@H](CC(N)=O)NC(=O)[C@@H](NC(=O)CNC(=O)CNC(=O)[C@@H](N)Cc2ccc(O)cc2)CSSC[C@@H](C(=O)O)NC1=O [^99mTc-NGR, metal not drawn] (H-YGGCNGRC-OH; disulfide 4-8)
^99mTc-NGR peptide remained intact [1]: ~92% | uptake in HepG2 cells (percentage of total input radioactivity) (HepG2 cells; 15 min): about 0.49 ± 0.05% | uptake in HepG2 cells (percentage of total input radioactivity) (HepG2 cells; 2 h (maximum)): 1.52 ± 0.13% | uptake in HepG2 cells (percentage of total input radioactivity) (HepG2 cells; 4 h): About 1.35 ± 0.27% | tissue uptake at 1 h (Biodistribution studies; blood, iv, 1 h postinjection, ~7.4 MBq i.v., read-out: Blood uptake): 3.82 ± 0.41 %ID/g | tissue uptake at 4 h (Biodistribution studies; [3]): 1.75 ± 0.39 %ID/g | tissue uptake at 8 h (Biodistribution studies; [3]): 0.98 ± 0.22 %ID/g | tissue uptake at 12 h (Biodistribution studies; [3]): 0.75 ± 0.31 %ID/g | tissue uptake at 1 h (Biodistribution studies; blood, iv, Blocking (1 h), coinjection of unlabelled NGR 20 mg/kg, read-out: Blood uptake): 2.56 ± 0.34 %ID/g | tissue uptake at 1 h (Biodistribution studies; heart, iv, 1 h postinjection, ~7.4 MBq i.v., read-out: Heart uptake): 3.74 ± 0.54 %ID/g | tissue uptake at 4 h (Biodistribution studies; [4]): 2.26 ± 0.33 %ID/g | tissue uptake at 8 h (Biodistribution studies; [4]): 1.15 ± 0.32 %ID/g | tissue uptake at 12 h (Biodistribution studies; [4]): 1.07 ± 0.25 %ID/g | tissue uptake at 1 h (Biodistribution studies; heart, iv, Blocking (1 h), coinjection of unlabelled NGR 20 mg/kg, read-out: Heart uptake): 2.73 ± 0.29 %ID/g | tissue uptake at 1 h (Biodistribution studies; intestine, iv, 1 h postinjection, ~7.4 MBq i.v., read-out: Intestine uptake): 2.65 ± 1.06 %ID/g | tissue uptake at 4 h (Biodistribution studies; [5]): 2.18 ± 0.96 %ID/g | tissue uptake at 8 h (Biodistribution studies; [5]): 1.93 ± 0.22 %ID/g | tissue uptake at 12 h (Biodistribution studies; [5]): 1.6 ± 0.27 %ID/g | tissue uptake at 1 h (Biodistribution studies; intestine, iv, Blocking (1 h), coinjection of unlabelled NGR 20 mg/kg, read-out: Intestine uptake): 2.4 ± 0.59 %ID/g | tissue uptake at 1 h (Biodistribution studies; iv, HepG2 tumor, 1 h postinjection, ~7.4 MBq i.v., read-out: Tumor uptake): 2.52 ± 0.83 %ID/g | tissue uptake at 4 h (Biodistribution studies; [6]): 3.03 ± 0.71 %ID/g | tissue uptake at 8 h (Biodistribution studies; [6]): 3.26 ± 0.63 %ID/g | tissue uptake at 12 h (Biodistribution studies; [6]): 2.81 ± 0.25 %ID/g | tissue uptake at 1 h (Biodistribution studies; iv, HepG2 tumor, Blocking (1 h), coinjection of unlabelled NGR 20 mg/kg, read-out: Tumor uptake): 1.65 ± 0.61 %ID/g | tissue uptake at 1 h (Biodistribution studies; kidney, iv, 1 h postinjection, ~7.4 MBq i.v., read-out: Kidney uptake): 7.93 ± 2.13 %ID/g | tissue uptake at 4 h (Biodistribution studies; [7]): 7.03 ± 0.95 %ID/g | tissue uptake at 8 h (Biodistribution studies; [7]): 6.21 ± 0.43 %ID/g | tissue uptake at 12 h (Biodistribution studies; [7]): 5.96 ± 0.41 %ID/g | tissue uptake at 1 h (Biodistribution studies; kidney, Blocking (1 h), coinjection of unlabelled NGR 20 mg/kg, read-out: Kidney uptake): 5.03 ± 0.97 %ID/g | tissue uptake at 1 h (Biodistribution studies; liver, iv, 1 h postinjection, ~7.4 MBq i.v., read-out: Liver uptake): 4.07 ± 0.76 %ID/g | tissue uptake at 4 h (Biodistribution studies; [8]): 3.85 ± 0.73 %ID/g | tissue uptake at 8 h (Biodistribution studies; [8]): 3.44 ± 0.52 %ID/g | tissue uptake at 12 h (Biodistribution studies; [8]): 3.26 ± 0.47 %ID/g | tissue uptake at 1 h (Biodistribution studies; liver, Blocking (1 h), coinjection of unlabelled NGR 20 mg/kg, read-out: Liver uptake): 3.27 ± 0.16 %ID/g | tissue uptake at 4 h (Biodistribution studies; [9]): 2.13 ± 0.44 %ID/g | tissue uptake at 8 h (Biodistribution studies; [9]): 1.86 ± 0.38 %ID/g | tissue uptake at 12 h (Biodistribution studies; [9]): 1.21 ± 0.31 %ID/g | tissue uptake at 1 h (Biodistribution studies; lung, iv, Blocking (1 h), coinjection of unlabelled NGR 20 mg/kg, read-out: Lung uptake): 2.04 ± 0.28 %ID/g | tissue uptake at 1 h (Biodistribution studies; muscle, iv, 1 h postinjection, ~7.4 MBq i.v., read-out: Muscle uptake): 0.53 ± 0.33 %ID/g | tissue uptake at 4 h (Biodistribution studies; [10]): 0.46 ± 0.11 %ID/g | tissue uptake at 8 h (Biodistribution studies; [10]): 0.43 ± 0.14 %ID/g | tissue uptake at 12 h (Biodistribution studies; [10]): 0.39 ± 0.22 %ID/g | tissue uptake at 1 h (Biodistribution studies; muscle, iv, Blocking (1 h), coinjection of unlabelled NGR 20 mg/kg, read-out: Muscle uptake): 0.48 ± 0.27 %ID/g | tissue uptake at 1 h (Biodistribution studies; spleen, iv, 1 h postinjection, ~7.4 MBq i.v., read-out: Spleen uptake): 2.37 ± 0.43 %ID/g | tissue uptake at 4 h (Biodistribution studies; [11]): 2.09 ± 0.6 %ID/g | tissue uptake at 8 h (Biodistribution studies; [11]): 1.88 ± 0.42 %ID/g | tissue uptake at 12 h (Biodistribution studies; [11]): 1.72 ± 0.37 %ID/g | tissue uptake at 1 h (Biodistribution studies; spleen, Blocking (1 h), coinjection of unlabelled NGR 20 mg/kg, read-out: Spleen uptake): 1.89 ± 0.22 %ID/g | tissue uptake at 1 h (Biodistribution studies; stomach, iv, 1 h postinjection, ~7.4 MBq i.v., read-out: Stomach uptake): 3.07 ± 0.56 %ID/g | tissue uptake at 4 h (Biodistribution studies; [12]): 2.2 ± 0.26 %ID/g | tissue uptake at 8 h (Biodistribution studies; [12]): 1.61 ± 0.39 %ID/g | tissue uptake at 12 h (Biodistribution studies; [12]): 1.56 ± 0.32 %ID/g | tissue uptake at 1 h (Biodistribution studies; stomach, Blocking (1 h), coinjection of unlabelled NGR 20 mg/kg, read-out: Stomach uptake): 3.41 ± 0.31 %ID/g | tissue to tissue ratio at 1 h (Biodistribution studies; tumor/kidney, iv, 7.4 MBq, 1 h postinjection, read-out: Tumor-to-normal tissue uptake ratio T/K): 0.32 ± 0.15 | tissue to tissue ratio at 1 h (Biodistribution studies; tumor/liver, iv, 7.4 MBq, 1 h postinjection, read-out: Tumor-to-normal tissue uptake ratio T/L): 0.62 ± 0.33 | tissue to tissue ratio at 1 h (Biodistribution studies; tumor/muscle, iv, 7.4 MBq, 1 h postinjection, read-out: Tumor-to-normal tissue uptake ratio T/M): 4.75 ± 0.91 | tissue to tissue ratio at 8 h (Biodistribution studies; tumor/muscle, iv, 7.4 MBq, 8 h (highest value), read-out: tumor/muscle (T/NT) value): 7.58 ± 1.92 | remaining at 12 h [2]: ~92%
